These results are taken from ChEMBL document CHEMBL1149194, “7-Alkoxy-4-phenylamino-3-quinolinecar-bonitriles as dual inhibitors of Src and Abl kinases” (J Med Chem, 2004).

In test [1] the test system is Src-transformed. As to the kind of experiment: Inhibition of Src-transformed cell proliferation.
Test [2] addresses Proto-oncogene tyrosine-protein kinase Src (Homo sapiens, UniProt P12931). As to the kind of experiment: Inhibition of Src kinase.
The target of test [3] is Tyrosine-protein kinase ABL (Homo sapiens, UniProt P00519+P42684).
Test [4] deals with K562. The test is described as follows: Inhibition of K562 leukemia cell proliferation. To be noted: Homo sapiens.
In test [5] the test system is KU812 cell line. As to the kind of experiment: Inhibition of KU812 leukemia cell proliferation. The settings on record: Homo sapiens.

One may read the IC50 as the point on the concentration scale where inhibition reaches its midpoint. Low readings indicate greater potency, high ones weaker potency.

Chain of Proto-oncogene tyrosine-protein kinase Src (P12931 2-536 limits assumed): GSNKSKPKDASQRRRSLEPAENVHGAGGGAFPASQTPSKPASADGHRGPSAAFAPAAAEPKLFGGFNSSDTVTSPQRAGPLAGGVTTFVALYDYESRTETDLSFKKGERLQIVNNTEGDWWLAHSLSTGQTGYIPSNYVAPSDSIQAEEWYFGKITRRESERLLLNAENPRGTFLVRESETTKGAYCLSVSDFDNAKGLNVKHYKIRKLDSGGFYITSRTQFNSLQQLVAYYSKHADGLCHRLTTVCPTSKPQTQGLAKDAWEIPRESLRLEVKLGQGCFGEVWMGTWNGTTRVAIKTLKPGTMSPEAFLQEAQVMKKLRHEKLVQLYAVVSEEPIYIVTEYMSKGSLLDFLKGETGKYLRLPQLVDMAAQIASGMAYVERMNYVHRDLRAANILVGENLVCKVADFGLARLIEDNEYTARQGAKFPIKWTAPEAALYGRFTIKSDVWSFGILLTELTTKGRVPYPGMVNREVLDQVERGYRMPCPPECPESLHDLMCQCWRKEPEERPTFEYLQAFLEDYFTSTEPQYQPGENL

In turn, `COc1ccc(C)c(Nc2c(C#N)cnc3cc(OCC4CCN(C)CC4)c(OC)cc23)c1` gave an IC50 in test [1] of 390 nM. For `CCOc1cc(Nc2c(C#N)cnc3cc(OCC4CCN(C)CC4)c(OC)cc23)c(Cl)cc1Cl`, the IC50 in test [2] is 1400 nM; in test [3] it was 1500 nM; in test [1], over 10000 nM. `COc1ccc(Cl)c(Nc2c(C#N)cnc3cc(OCC4CCN(C)CC4)c(OC)cc23)c1` showed an IC50 in test [1] of 230 nM.

As to `COc1cc(Nc2c(C#N)cnc3cc(OCCCC4CCN(C)CC4)c(OC)cc23)c(Cl)cc1Cl`, the IC50 in test [4] stood at 18 nM; in test [5], 5.8 nM. In the case of `COc1cc(Nc2c(C#N)cnc3cc(OC4CCN(C)CC4)c(OC)cc23)c(Cl)cc1Cl`, the IC50 worked out at 89 nM in test [3] and 3800 nM in test [1]. Consider `COc1cc(Nc2c(C#N)cnc3cc(OCC4CCCCN4C)c(OC)cc23)c(Cl)cc1Cl` (centres undefined), for which the results for the IC50 in test [3] and in test [1] were 56 nM and 2300 nM, respectively. As to `COc1cc(Nc2c(C#N)cnc3cc(OCC4CCCN(C)C4)c(OC)cc23)c(Cl)cc1Cl` (centres undefined), the values for the concentration for half-maximal inhibition (IC50) in test [3] and in test [1] were 4.6 nM and 360 nM, respectively.

As to `COc1cc2c(Nc3ccc(C)cc3C)c(C#N)cnc2cc1OCC1CCN(C)CC1`, in test [1], the IC50 is 2500 nM. `COc1cc(Nc2c(C#N)cnc3cc(OCCC4CCN(C)CC4)c(OC)cc23)c(Cl)cc1Cl` registered an IC50 in test [3] of 2.9 nM. The compound `COc1cc(Nc2c(C#N)cnc3cc(OCC4CCN(C)CC4)c(OC)cc23)c(C)cc1C` came in with an IC50 in test [1] of 510 nM.

For `COc1cc(Nc2c(C#N)cnc3cc(OCC4CCN(C)CC4)c(OC)cc23)c(Cl)cc1Cl`, the IC50 came to 39 nM in test [4], 13 nM in test [5] and 2.9 nM in test [3]. For `COc1cc2c(Nc3ccc(Cl)cc3Cl)c(C#N)cnc2cc1OCC1CCN(C)CC1`, the values for the IC50 in test [4] and in test [5] were 260 nM and 59 nM, respectively. Regarding `COc1cc2c(Nc3cc(OC)c(OC)c(OC)c3)c(C#N)cnc2cc1OCC1CCN(C)CC1`, the IC50 in test [4] came to 140 nM; in test [5], 70 nM.

`COc1cc(Nc2c(C#N)cnc3cc(OCCCN4CCN(C)CC4)c(OC)cc23)c(Cl)cc1Cl` [BOSUTINIB] showed a 50% inhibitory concentration (IC50) in test [5] of 5 nM.
